From ChEMBL document CHEMBL1201862, “PubChem BioAssay data set” (2004)
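96-well plates; 48 h exposure; 5 concentrations. Endpoints by linear interpolation between flanking doses. Not reached: highest tested concentration assigned. GI50 marks 50% less growth.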 Activity calls are given as the source filed them. No stated cut-off is given here; in the data, active = GI50 up to about 1.1 µM and inactive = higher.

Assays:
Experiment in all cases: NCI anticancer screen, dose series, 48 h
MDA-N = system: MDA-N
HCT-15 = system: HCT-15
DU-145 = system: DU-145
SW-620 = system: SW-620
UACC-257 = system: UACC-257
RPMI-8226 = system: RPMI-8226
IGROV-1 = system: IGROV-1
SF-268 = system: SF-268
SNB-19 = system: SNB-19
MOLT-4 = system: MOLT-4
OVCAR-5 = system: OVCAR-5
UO-31 = system: UO-31
OVCAR-8 = system: OVCAR-8
HOP-62 = system: HOP-62
Hs-578T = system: Hs-578T
K562 = system: K562
SK-MEL-2 = system: SK-MEL-2
SK-MEL-28 = system: SK-MEL-28
NCI-H226 = system: NCI-H226

| SMILES | GI50 (MDA-N) | GI50 (HCT-15) [µM] | GI50 (DU-145) | GI50 (SW-620) | GI50 (UACC-257) | GI50 (RPMI-8226) | GI50 (IGROV-1) | GI50 (SF-268) | GI50 (SNB-19) | GI50 (MOLT-4) | GI50 (OVCAR-5) | GI50 (UO-31) | GI50 (OVCAR-8) | GI50 (HOP-62) | GI50 (Hs-578T) | GI50 (K562) | GI50 (SK-MEL-2) | GI50 (SK-MEL-28) | GI50 (NCI-H226) |
| --- | --- | --- | --- | --- | --- | --- | --- | --- | --- | --- | --- | --- | --- | --- | --- | --- | --- | --- | --- |
| NC(CCC(=O)NC(CSC(=O)N(O)c1ccc(Cl)cc1)C(=O)NCC(=O)O)C(=O)O (stereo not given) | > 0.5 µM (active) | > 0.5 | > 0.5 µM (active) | > 0.5 µM (active) | > 0.5 µM (active) | > 0.5 µM (active) | > 0.5 µM (active) | > 0.5 µM (active) | > 0.5 µM (active) | > 0.5 µM (active) | > 0.5 µM (active) | > 0.5 µM (active) | > 0.5 µM (active) | > 0.5 µM (active) | > 0.5 µM (active) | > 0.5 µM (active) | > 0.5 µM (active) | > 0.5 µM (active) | > 0.5 µM (active) |
| CC1C(c2ccc3c(c2)OCO3)c2cc3c(cc2OC1N1CCOCC1)OCO3 (stereo not given) | 6.28 µM (inactive) | 19.3 | 27.8 µM (inactive) | 25.9 µM (inactive) | 35.4 µM (inactive) | 21 µM (inactive) | 28 µM (inactive) | 31.3 µM (inactive) | 16.4 µM (inactive) | 16.7 µM (inactive) | 46.2 µM (inactive) | 18.1 µM (inactive) | 32.5 µM (inactive) | 34.4 µM (inactive) | 14.1 µM (inactive) | 7.41 µM (inactive) | 19.9 µM (inactive) | 23.7 µM (inactive) | 22 µM (inactive) |
| O=CC(O)C(O)C1OC(=O)c2cc(O)c(O)c(O)c2C2=C(O)C(O)=C3OC(=O)c4c(c(O)c(O)c5c4C3C2C(=O)O5)-c2c(cc(O)c(O)c2O)C(=O)OCC1O (stereo not given) | 19 µM (inactive) | 20.3 | 17.9 µM (inactive) | 16.9 µM (inactive) | 49.5 µM (inactive) | 24.5 µM (inactive) | 51.6 µM (inactive) | 28.4 µM (inactive) | 57.8 µM (inactive) | 20.7 µM (inactive) | 24 µM (inactive) | 14.7 µM (inactive) | 20.1 µM (inactive) | 72.6 µM (inactive) | 67.1 µM (inactive) | 20.7 µM (inactive) | 33 µM (inactive) | 44.3 µM (inactive) | 21.4 µM (inactive) |
| CN(C)c1ccc(/C(Br)=C2\OC(=O)c3ccccc32)cc1 | 40.1 µM (inactive) | 87.3 | > 100 µM (inactive) | 93.5 µM (inactive) | > 100 µM (inactive) | 24.3 µM (inactive) | > 100 µM (inactive) | > 100 µM (inactive) | > 100 µM (inactive) | 37.2 µM (inactive) | 2.95 µM (inactive) | > 100 µM (inactive) | > 100 µM (inactive) | > 100 µM (inactive) | > 100 µM (inactive) | 59.6 µM (inactive) | 92.9 µM (inactive) | > 100 µM (inactive) | 24.4 µM (inactive) |
| CC(C)/C=N\N1C(N)=C(C#N)C(C#N)(C#N)C1C(C)C (stereo not given) | 22.4 µM (inactive) | 32.7 | 40 µM (inactive) | 34.6 µM (inactive) | 47.5 µM (inactive) | 37.8 µM (inactive) | 39.9 µM (inactive) | 56.6 µM (inactive) | > 100 µM (inactive) | 34.8 µM (inactive) | 50.2 µM (inactive) | 38 µM (inactive) | 25.1 µM (inactive) | 55.7 µM (inactive) | 88.5 µM (inactive) | 42.1 µM (inactive) | 67.3 µM (inactive) | 47 µM (inactive) | 55.6 µM (inactive) |
| Cc1ccc(NC(=O)CSc2nc(O)nc3[nH]cnc23)cc1 | 90.2 µM (inactive) | > 100 | > 100 µM (inactive) | 66.2 µM (inactive) | > 100 µM (inactive) | 50.5 µM (inactive) | > 100 µM (inactive) | 48.5 µM (inactive) | 68.7 µM (inactive) | 58.7 µM (inactive) | 49.7 µM (inactive) | > 100 µM (inactive) | > 100 µM (inactive) | 48.5 µM (inactive) | 68.9 µM (inactive) | > 100 µM (inactive) | > 100 µM (inactive) | > 100 µM (inactive) | 33.8 µM (inactive) |
| Cc1nc(-n2nc(-c3ccccc3)cc2-c2ccccc2)sc1C(/C=C\c1ccc([N+](=O)[O-])cc1)=N/NC(=S)NN | 22 µM (inactive) | 22.8 | 31 µM (inactive) | > 74 µM (inactive) | > 42.1 µM (inactive) | > 48.8 µM (inactive) | 40.7 µM (inactive) | 26.4 µM (inactive) | > 49.3 µM (inactive) | > 52.5 µM (inactive) | 38.7 µM (inactive) | > 43.9 µM (inactive) | 16.7 µM (inactive) | 22 µM (inactive) | 25 µM (inactive) | > 56.6 µM (inactive) | 44.1 µM (inactive) | 45.2 µM (inactive) | > 46.8 µM (inactive) |
| O=C1c2ccccc2CC12Cc1ccccc1C2 | 56.4 µM (inactive) | 49.7 | 86.3 µM (inactive) | > 100 µM (inactive) | 18.9 µM (inactive) | 31.7 µM (inactive) | 87.5 µM (inactive) | 48 µM (inactive) | > 100 µM (inactive) | 35.7 µM (inactive) | > 100 µM (inactive) | 40.1 µM (inactive) | 80.4 µM (inactive) | 83.9 µM (inactive) | 52.2 µM (inactive) | 34.8 µM (inactive) | 45.3 µM (inactive) | > 100 µM (inactive) | > 100 µM (inactive) |
| Cc1ccc([N+](=O)[O-])cc1S(=O)(=O)Nc1ccc(C2=NN(c3ccc([N+](=O)[O-])cc3[N+](=O)[O-])C(c3ccccc3O)C2)cc1 (stereo not given) | 29.3 µM (inactive) | 27 | 39.1 µM (inactive) | 63.7 µM (inactive) | 25.2 µM (inactive) | 49.1 µM (inactive) | 26.4 µM (inactive) | 35.6 µM (inactive) | 47.1 µM (inactive) | 12.7 µM (inactive) | > 100 µM (inactive) | 24.5 µM (inactive) | 38.4 µM (inactive) | 36.3 µM (inactive) | 42.7 µM (inactive) | 21.8 µM (inactive) | 20.7 µM (inactive) | 75.5 µM (inactive) | 36.6 µM (inactive) |
| CN/N=C(\C)C(CN(C)C)C(c1ccccc1)c1c(O)c2ccccc2oc1=O (stereo not given) | > 100 µM (inactive) | > 100 | > 100 µM (inactive) | > 100 µM (inactive) | > 100 µM (inactive) | 42 µM (inactive) | > 100 µM (inactive) | > 100 µM (inactive) | > 100 µM (inactive) | 75.5 µM (inactive) | > 100 µM (inactive) | > 100 µM (inactive) | > 100 µM (inactive) | > 100 µM (inactive) | > 100 µM (inactive) | > 100 µM (inactive) | > 100 µM (inactive) | > 100 µM (inactive) | > 100 µM (inactive) |
| Cc1nc2c(=O)[nH]ncc2[nH]1 | > 100 µM (inactive) | > 100 | > 100 µM (inactive) | > 100 µM (inactive) | > 100 µM (inactive) | > 100 µM (inactive) | > 100 µM (inactive) | > 100 µM (inactive) | > 100 µM (inactive) | > 100 µM (inactive) | > 100 µM (inactive) | > 100 µM (inactive) | > 100 µM (inactive) | > 100 µM (inactive) | > 100 µM (inactive) | > 100 µM (inactive) | > 100 µM (inactive) | > 100 µM (inactive) | > 100 µM (inactive) |
| COc1cc(C(=O)O[C@@H]2[C@@H](OC(=O)c3cc(OC)c(OC)c(OC)c3)[C@@H](OC)O[C@@H]3CO[C@@H](c4ccccc4)O[C@@H]23)cc(OC)c1OC | > 100 µM (inactive) | > 100 | > 100 µM (inactive) | > 100 µM (inactive) | > 100 µM (inactive) | > 100 µM (inactive) | > 100 µM (inactive) | > 100 µM (inactive) | > 100 µM (inactive) | > 100 µM (inactive) | > 100 µM (inactive) | > 100 µM (inactive) | > 100 µM (inactive) | > 100 µM (inactive) | > 100 µM (inactive) | > 100 µM (inactive) | > 100 µM (inactive) | > 100 µM (inactive) | > 100 µM (inactive) |
| CC1OC2(CC(OCc3ccccc3)C1OCc1ccccc1)OCCO2 (stereo not given) | 55.1 µM (inactive) | 28.2 | 88.5 µM (inactive) | 70 µM (inactive) | 34.8 µM (inactive) | 35.2 µM (inactive) | > 100 µM (inactive) | 60.1 µM (inactive) | 44.3 µM (inactive) | 27.3 µM (inactive) | 51.3 µM (inactive) | 42.3 µM (inactive) | > 100 µM (inactive) | > 100 µM (inactive) | 17.4 µM (inactive) | 77.8 µM (inactive) | 78.5 µM (inactive) | > 100 µM (inactive) | 82.6 µM (inactive) |
| NCCCCNCCCN1CCOC1=O | > 100 µM (inactive) | > 100 | > 100 µM (inactive) | > 100 µM (inactive) | > 100 µM (inactive) | > 100 µM (inactive) | > 100 µM (inactive) | > 100 µM (inactive) | > 100 µM (inactive) | > 100 µM (inactive) | > 100 µM (inactive) | > 100 µM (inactive) | > 100 µM (inactive) | > 100 µM (inactive) | > 100 µM (inactive) | > 100 µM (inactive) | > 100 µM (inactive) | > 100 µM (inactive) | > 100 µM (inactive) |
| CC(C)c1ccc2c(c1)/C(=C1/Nc3ccccc3C1=O)C(=O)N2 | 28.8 µM (inactive) | 36.5 | 15.2 µM (inactive) | 43.3 µM (inactive) | 61.8 µM (inactive) | 27.8 µM (inactive) | 1.45 µM (inactive) | 15.3 µM (inactive) | 13 µM (inactive) | 22.1 µM (inactive) | 27.7 µM (inactive) | 6.5 µM (inactive) | 10.6 µM (inactive) | 4.57 µM (inactive) | 7.64 µM (inactive) | 33.7 µM (inactive) | 14.3 µM (inactive) | > 100 µM (inactive) | 3.62 µM (inactive) |
